The target of one assay is Adenosine receptor A2a (Homo sapiens, UniProt P29274).
Assay [1] concerns the target T1, Cholecystokinin receptor type A (Homo sapiens, UniProt P32238).
T1 sequence (P32238 whole entry): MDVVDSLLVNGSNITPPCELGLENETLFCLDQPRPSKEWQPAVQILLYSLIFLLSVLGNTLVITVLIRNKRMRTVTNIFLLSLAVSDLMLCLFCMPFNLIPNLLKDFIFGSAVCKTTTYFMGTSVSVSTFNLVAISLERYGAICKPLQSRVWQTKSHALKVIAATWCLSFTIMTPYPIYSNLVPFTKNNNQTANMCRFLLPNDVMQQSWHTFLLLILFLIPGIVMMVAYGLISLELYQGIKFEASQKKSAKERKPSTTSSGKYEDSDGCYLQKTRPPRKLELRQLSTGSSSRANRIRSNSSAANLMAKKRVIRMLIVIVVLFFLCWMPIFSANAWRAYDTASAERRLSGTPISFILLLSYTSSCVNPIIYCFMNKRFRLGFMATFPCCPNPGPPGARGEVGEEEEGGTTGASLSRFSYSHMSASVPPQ

The target in assay [2] is T2, Muscarinic acetylcholine receptor M1 (Homo sapiens, UniProt P11229).
T2 sequence (P11229 whole entry): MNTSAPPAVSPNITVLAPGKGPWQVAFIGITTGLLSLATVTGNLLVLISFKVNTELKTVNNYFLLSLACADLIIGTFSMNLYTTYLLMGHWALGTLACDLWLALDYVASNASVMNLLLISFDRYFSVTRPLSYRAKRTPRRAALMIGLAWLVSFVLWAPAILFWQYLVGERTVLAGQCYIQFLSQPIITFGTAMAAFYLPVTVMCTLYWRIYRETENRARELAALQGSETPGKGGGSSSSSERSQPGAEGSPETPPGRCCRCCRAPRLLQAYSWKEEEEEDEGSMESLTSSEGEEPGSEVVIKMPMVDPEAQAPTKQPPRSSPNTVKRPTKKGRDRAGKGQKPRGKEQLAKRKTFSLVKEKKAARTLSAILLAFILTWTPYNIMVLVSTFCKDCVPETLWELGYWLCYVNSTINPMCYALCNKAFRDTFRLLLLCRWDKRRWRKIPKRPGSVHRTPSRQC
It is filed as functional, cell-based.

The target in the next assay is Cannabinoid receptor 1 (Homo sapiens, UniProt P21554). It is filed as functional, cell-based.
For a further assay, the target named is T3, Endothelin-1 receptor (Homo sapiens, UniProt P25101).
T3 sequence (P25101 whole entry): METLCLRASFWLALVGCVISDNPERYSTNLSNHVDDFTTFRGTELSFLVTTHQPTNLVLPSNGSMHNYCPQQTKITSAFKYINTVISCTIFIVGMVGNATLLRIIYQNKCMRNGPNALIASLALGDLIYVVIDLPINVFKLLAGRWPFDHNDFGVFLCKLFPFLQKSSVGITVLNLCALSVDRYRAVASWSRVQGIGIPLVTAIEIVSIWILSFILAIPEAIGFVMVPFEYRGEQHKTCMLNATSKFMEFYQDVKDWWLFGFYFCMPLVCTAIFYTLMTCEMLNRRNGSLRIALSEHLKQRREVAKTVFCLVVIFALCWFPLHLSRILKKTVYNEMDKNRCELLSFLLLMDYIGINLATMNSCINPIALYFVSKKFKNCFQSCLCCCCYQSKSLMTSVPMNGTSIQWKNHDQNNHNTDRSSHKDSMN

Assay [3] has as its target T4, 5-hydroxytryptamine receptor 3A (Homo sapiens, UniProt P46098).
T4 sequence (P46098 whole entry): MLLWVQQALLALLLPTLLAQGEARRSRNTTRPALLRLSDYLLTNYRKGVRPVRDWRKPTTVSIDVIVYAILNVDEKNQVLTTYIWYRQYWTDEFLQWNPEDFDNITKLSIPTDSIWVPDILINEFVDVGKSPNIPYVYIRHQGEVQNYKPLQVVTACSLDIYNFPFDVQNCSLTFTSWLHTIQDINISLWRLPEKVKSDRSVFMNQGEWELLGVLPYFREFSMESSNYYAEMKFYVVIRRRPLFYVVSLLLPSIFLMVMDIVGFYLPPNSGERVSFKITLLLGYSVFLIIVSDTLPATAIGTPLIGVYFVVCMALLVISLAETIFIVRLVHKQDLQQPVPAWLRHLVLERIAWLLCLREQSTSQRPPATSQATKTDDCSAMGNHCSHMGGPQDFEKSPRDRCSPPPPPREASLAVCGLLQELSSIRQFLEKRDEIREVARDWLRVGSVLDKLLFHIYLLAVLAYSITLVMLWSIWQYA
It is filed as functional.

The target of assay [4] is Sodium-dependent noradrenaline transporter (Homo sapiens, UniProt P23975).
Assay [5] deals with T5, Alpha-1A adrenergic receptor (Homo sapiens, UniProt P35348).
T5 sequence (P35348 whole entry): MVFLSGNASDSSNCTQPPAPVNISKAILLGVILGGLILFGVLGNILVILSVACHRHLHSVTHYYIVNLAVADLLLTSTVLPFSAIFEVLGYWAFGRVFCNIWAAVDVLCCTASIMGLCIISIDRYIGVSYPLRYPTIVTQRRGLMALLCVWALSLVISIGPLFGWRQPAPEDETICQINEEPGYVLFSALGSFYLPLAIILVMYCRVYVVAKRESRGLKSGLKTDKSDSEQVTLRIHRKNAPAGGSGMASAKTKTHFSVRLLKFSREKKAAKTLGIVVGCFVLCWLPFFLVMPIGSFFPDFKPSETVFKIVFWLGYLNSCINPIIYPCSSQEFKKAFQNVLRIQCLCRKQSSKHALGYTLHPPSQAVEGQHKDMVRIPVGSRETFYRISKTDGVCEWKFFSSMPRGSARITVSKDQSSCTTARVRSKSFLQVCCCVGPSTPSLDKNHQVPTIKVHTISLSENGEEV
It is filed as functional, cell-based.

A further assay has as its target T6, Thromboxane A2 receptor (Homo sapiens, UniProt P21731).
T6 sequence (P21731 whole entry): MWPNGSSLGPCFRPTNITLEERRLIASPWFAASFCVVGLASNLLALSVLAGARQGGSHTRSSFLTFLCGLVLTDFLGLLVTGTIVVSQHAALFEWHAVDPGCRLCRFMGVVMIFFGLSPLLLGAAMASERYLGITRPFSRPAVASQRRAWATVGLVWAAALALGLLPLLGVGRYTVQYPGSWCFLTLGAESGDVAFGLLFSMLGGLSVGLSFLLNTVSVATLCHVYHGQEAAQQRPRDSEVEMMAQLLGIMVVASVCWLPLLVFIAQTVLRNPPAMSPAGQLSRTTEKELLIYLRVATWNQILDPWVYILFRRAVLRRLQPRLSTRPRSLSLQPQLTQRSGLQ
Further: assay procedure not described here.

Sequence of Sodium-dependent noradrenaline transporter (P23975 whole entry): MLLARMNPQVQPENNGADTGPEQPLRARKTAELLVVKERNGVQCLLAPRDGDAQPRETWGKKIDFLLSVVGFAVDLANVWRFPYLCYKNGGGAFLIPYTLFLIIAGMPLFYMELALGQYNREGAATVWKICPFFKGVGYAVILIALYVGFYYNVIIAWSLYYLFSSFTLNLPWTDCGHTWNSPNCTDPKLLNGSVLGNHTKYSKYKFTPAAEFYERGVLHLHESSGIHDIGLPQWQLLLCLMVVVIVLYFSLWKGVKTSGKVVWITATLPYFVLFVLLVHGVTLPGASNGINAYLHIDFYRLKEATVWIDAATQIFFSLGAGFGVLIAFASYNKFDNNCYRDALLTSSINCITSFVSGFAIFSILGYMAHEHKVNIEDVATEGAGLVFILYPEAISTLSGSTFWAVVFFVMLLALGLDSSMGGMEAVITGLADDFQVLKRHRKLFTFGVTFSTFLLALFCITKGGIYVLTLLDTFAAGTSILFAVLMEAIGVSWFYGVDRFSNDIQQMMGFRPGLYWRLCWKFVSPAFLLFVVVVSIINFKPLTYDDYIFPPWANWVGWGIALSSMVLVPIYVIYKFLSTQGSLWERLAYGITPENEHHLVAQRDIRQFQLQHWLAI
Sequence of Cannabinoid receptor 1 (P21554 whole entry): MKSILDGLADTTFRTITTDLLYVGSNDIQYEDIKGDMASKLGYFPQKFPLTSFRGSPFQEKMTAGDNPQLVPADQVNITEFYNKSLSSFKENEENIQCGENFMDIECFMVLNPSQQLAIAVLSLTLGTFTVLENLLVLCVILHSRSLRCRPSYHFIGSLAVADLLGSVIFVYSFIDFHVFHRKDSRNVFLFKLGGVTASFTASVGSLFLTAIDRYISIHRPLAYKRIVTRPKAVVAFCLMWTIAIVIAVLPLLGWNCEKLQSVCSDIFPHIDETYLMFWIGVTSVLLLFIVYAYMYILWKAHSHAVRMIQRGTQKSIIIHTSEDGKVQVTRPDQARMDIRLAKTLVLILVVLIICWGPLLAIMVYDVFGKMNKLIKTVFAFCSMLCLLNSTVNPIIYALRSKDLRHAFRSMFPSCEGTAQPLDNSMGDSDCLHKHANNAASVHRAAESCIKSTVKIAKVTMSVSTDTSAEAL
Sequence of Adenosine receptor A2a (P29274 whole entry): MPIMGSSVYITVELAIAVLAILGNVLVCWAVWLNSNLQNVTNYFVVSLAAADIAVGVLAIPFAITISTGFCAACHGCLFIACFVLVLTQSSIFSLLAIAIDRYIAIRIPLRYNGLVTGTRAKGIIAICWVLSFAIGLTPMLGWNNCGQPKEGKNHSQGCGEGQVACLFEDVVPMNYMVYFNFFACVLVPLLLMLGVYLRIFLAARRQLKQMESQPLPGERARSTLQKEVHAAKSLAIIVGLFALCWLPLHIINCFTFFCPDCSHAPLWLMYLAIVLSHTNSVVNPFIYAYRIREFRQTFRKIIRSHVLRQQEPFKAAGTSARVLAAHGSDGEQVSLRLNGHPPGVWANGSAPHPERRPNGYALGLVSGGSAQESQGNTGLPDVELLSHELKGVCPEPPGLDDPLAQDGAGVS

Usually AC50 stands for the concentration giving half of the maximal activity seen. The low end stands for activity at low concentration, the high end for activity only at high concentration. `C#Cc1cccc(Nc2ncnc3cc(OCCOC)c(OCCOC)cc23)c1` [ERLOTINIB]: the AC50 was 18 µM on Adenosine receptor A2a; 9.1 µM in [1]; 1.64 µM in assay [2]; > 30 µM at Cannabinoid receptor 1; > 30 µM at Endothelin-1 receptor; > 30 µM in assay [3]. Further, the AC50 in [4] and in assay [5] was > 30 µM in each case.
Regarding `CC(=O)Oc1ccccc1C(=O)Nc1ncc([N+](=O)[O-])s1` [NITAZOXANIDE], the AC50 was 8.8 µM at Adenosine receptor A2a; 6.6 µM in [1]; > 30 µM in [2]; > 30 µM on Cannabinoid receptor 1; 12 µM at Endothelin-1 receptor; 3.1 µM in assay [3]. Moreover, the figures for the half-maximal activity concentration (AC50) (on Thromboxane A2 receptor; in [4]; in [5]) were 5 µM, 5.1 µM and 8.6 µM, respectively.
On to `CNC[C@H](O)c1cccc(O)c1` [PHENYLEPHRINE], for which the AC50 is > 30 µM at Adenosine receptor A2a; > 30 µM in assay [1]; > 30 µM in assay [2]; > 30 µM on Cannabinoid receptor 1; > 30 µM at Endothelin-1 receptor; > 10 µM in [3]. Further, the AC50 on Thromboxane A2 receptor is > 30 µM; in [4], > 10 µM.
In the case of `CC1(C)O[C@@H]2[C@@H](CO[C@@]3(COS(N)(=O)=O)OC(C)(C)O[C@@H]23)O1` [TOPIRAMATE], the half-maximal activity concentration (AC50) on Adenosine receptor A2a was > 30 µM; in assay [1], > 30 µM; in [2], > 30 µM; at Cannabinoid receptor 1 it was > 30 µM; at Endothelin-1 receptor, > 30 µM; in [3], > 10 µM. In addition, the concentration at half-maximal activity (AC50) is > 30 µM on Thromboxane A2 receptor and > 10 µM in assay [4].

For the origin of these results see ChEMBL document CHEMBL5291721, “A preclinical secondary pharmacology resource illuminates target-adverse drug reaction associations of marketed drugs” (Nat Commun, 2023).
